According to patent publication US6197225A, “Chromene compound” (Tokuyama Corporation, priority 1997, dated 2001):

Experiments:
[1] = Photochromic properties of cast polymer (2 mm thick) under xenon lamp irradiation for 120 seconds; format: physicochemical; conditions: for λ max: chromene composition, or other chromene C1-C4, 0.04% by weight in polymer; for Initial color ε(0): chromene composition, or other chromene C1-C4, non-irradiated; for Color-developing sensitivity: saturated color density/xenon irradiation time
Experimental: 0.04% by weight of the chromene compound obtained in Example 1 was added to 70 parts of 4G, 15 parts of 3G, 10 parts of GMA, 5 parts of HEMA and 1 part of perbutyl ND, and was mixed together to a sufficient degree. The mixture solution was poured into a mold constituted by a glass plate and a gasket of an ethylene/vinyl acetate copolymer, and was cast-polymerized. By using an air furnace, the polymerization was conducted in a manner that the temperature was gradually raised from 30° C. to 90° C. over a period of 18 hours, and was held at 90° C. for 2 hours. After the polymerization, the polymer was taken out from the glass mold.
By using a xenon lamp, L-2480 (300 W) SHL-100, manufactured by Hamamatsu Photonics Co., the obtained polymer (2 mm thick) was irradiated with a beam of an intensity of 365 nm=2.4 mW/cm^2 and 245 nm=24 μW/cm^2 on the surface of the polymer for 120 seconds through an aero-mass filter (manufactured by Corning Co.) at 20° C.±1° C. to develop color and to measure the photochromic properties which were expressed in the following manner.
1 Maximum absorption wavelength (λmax): λmax of the polymer after it has developed color was found by using a spectrophotometer (instantaneous multi-channel photo-detector, MCPD1000) manufactured by Otsuka Denshi Kogyo Co.
2 Initial color ( ε(0)): Absorbency of the polymer in a non-irradiated state at a wavelength same as the maximum absorption wavelength of when it is irradiated with light.
3 Color density (-)=ε(120)-ε(0). ε(120): Absorbency of the polymer at a maximum absorption wavelength after it was irradiated for 120 seconds under the above-mentioned conditions.
4 Color-developing sensitivity (-/min.)=Saturated color density/xenon irradiation time.
Rate of increase in the color density per a unit time until the color density is saturated.
5 Color fading rate [t1/2 (min.)]=time required until the absorbency of the polymer drops down to one-half of [ε(120)-ε(0)] after irradiated for 120 seconds.
(§1) Photochromic polymers were prepared in the same manner as in Example 42 but using the chromene compounds obtained in Examples 2 to 41, and their maximum absorption wavelengths, color densities, fading rates, changes in the coloring degrees and durabilitys were measured.
(§2) For the purpose of comparison, furthermore, the compounds represented by the following formulas (a), (b), (c), (d), (e) and (f) were measured for their maximum absorption wavelengths, color densities, fading rates, changes in the coloring degrees and durabilitys.
(§3) The procedure was carried out in the same manner as in Example 42 but using 100 parts of AC1 and 133 parts of BC1, the sum of the amounts of AC1 and BC1 being 0.04% by weight. The obtained photochromic polymer was measured for its maximum absorption wavelength, initial color, color density, color-developing sensitivity, fading rate, durability and change in the coloring degree.
(§4) The procedure was carried out in the same manner as in Example 83 but using the known chromene compounds shown in Table 6 instead of the chromene compound used in Example 83. […]

[2] = Aging promotion testing: sunlight 30 min / fading one hour cycles, 10 days (durability, coloring degree); format: physicochemical
Experimental: In order to promote the aging, furthermore, the following testing was conducted. That is, the obtained photochromic polymer was irradiated with sunlight for 30 minutes to develop color, and its color was permitted to fade for one hour in the light of a fluorescent lamp. This cycle was repeated three times a day for a total of 10 days.
The photochromic properties before and after aged were evaluated by evaluating the color densities before and after aged. The initial color density (T0) and the color density (T30) ten days after the aging promotion testing were measured, and the durability was expressed as described below.
Furthermore, the coloring degrees of before developing color were measured before and after aged by using a color difference meter (SM-4) manufactured by Suga Shikenki Co.
7 Coloring degree before being aged=YI(0).
8 Change in the coloring degree (ΔYI)=YI(10)-YI(0)
YI(10): coloring degree after aged
as §1, §2, §3, §4
The obtained polymer (2 mm thick) was caused to develop color outdoors, and tones of the developed color were observed by eyes 30 seconds and 15 minutes after it was brought to the outdoors, and uniformity in the step of developing color was evaluated. […] Furthermore, the aging promoting testing was conducted in the same manner as in Example 42 to find a coloring degree (YI(0)) before aged and a change in the coloring degree (ΔY).

[3] = single chromene compound 0.04% by weight in polymer, 20° C., Table 5
[4] = single chromene compound 0.04% by weight in polymer, 120 seconds, 20° C., Table 5
[5] = YI(10)-YI(0), single chromene compound in polymer, 10 days aging, Table 5
[6] = single chromene compound in polymer, 10 days aging, Table 5
[7] = chromene composition, or other chromene C1-C4, 120 seconds, Table 6
[8] = chromene composition, or other chromene C1-C4, Table 6
[9] = chromene composition, or other chromene C1-C4, 10 days aging, Table 6

SMILES	Maximum absorption wavelength λmax [1, 3] [nm]	Color density ε(120)-ε(0) [1, 4]	Change in the coloring degree ΔYI [2, 5]	Light resistance (durability) [2, 6] [%]	λ max ([1]; Table 6) [nm]	Color density ε(120)-ε(0) [1, 7]	Initial color ε(0) ([1]; Table 6)	Change in the coloring degree ΔYI [2, 9]	Durability [2, 9] [%]	Fading rate t1/2 [1, 3] [min]	Fading rate t1/2 [1, 8] [min]	Color-developing sensitivity ([1]; Table 6)
CCOC(=O)C1=CC(c2ccccc2)(c2ccccc2)Oc2c1cc(C)c1ccccc21 [b, reference compound]	488	1.2	6.5	80	–	–	–	–	–	14	–	–
COc1ccc(C2(c3ccco3)C=Cc3c(C)cc4c(F)ccc(C)c4c3O2)cc1 (stereo not shown) [Compound 41]	510	1.0	3.2	95	–	–	–	–	–	6.3	–	–
CCOC(=O)c1c2c(c3ccccc3c1C)OC(c1ccccc1)(c1ccccc1)C=C2 [Compound C2, 5-Ethoxycarbonyl-6-methyl-2,2-diphenyl-2H-benzo(h) chromene, reference compound]	–	–	–	–	458	0.9	0.02	4.0	95	–	4.0	0.2 -/min.
CC(C)(C)c1cc2ccccc2c2c1C=CC1(O2)C2CC3CC(C2)CC1C3 (stereo not shown) [Compound 24]	445	0.6	5.0	95	–	–	–	–	–	1.8	–	–
C1=CC2(CC3CCC2C3)Oc2c1ccc1ccccc21 (stereo not shown) [Compound C1, Spiro(norbornane-2,2'-(2H)benzo(h)chromene), reference compound]	–	–	–	–	450	1.0	0.01	2.0	90	–	> 10	0.2 -/min.
C1=CC(c2ccccc2)(c2ccccc2)Oc2ccc3ccccc3c21 [Compound C4, 3,3-Diphenyl-3H-benzo(f)chromene, reference compound]	–	–	–	–	432	0.5	0.01	5.0	95	–	1.0	0.2 -/min.
CCCCc1cc2cccc(Br)c2c2c1C=CC(c1ccc(OC)c(F)c1)(c1ccc(OC)c(F)c1)O2 [Compound 38]	482	0.8	2.8	96	–	–	–	–	–	4.8	–	–
CC(C)(C)c1cc2ccccc2c2c1C=CC(c1ccccc1)(c1cccs1)O2 (stereo not shown) [Compound 6]	480	0.8	1.8	97	–	–	–	–	–	2.8	–	–
CC(C)(C)c1cc2ccccc2c2c1C=CC1(CC3CCC1C3)O2 (stereo not shown) [Compound 18]	440	0.4	1.8	95	–	–	–	–	–	1.3	–	–
CCCc1cc2c(CC)cc(OCC)cc2c2c1C=CC(c1ccc(OC)cc1)(c1cccs1)O2 (stereo not shown) [Compound 40]	524	0.9	2.7	96	–	–	–	–	–	5.2	–	–
CCOC(=O)c1c2c(c3ccccc3c1C)OC1(C=C2)C2CCCC1CCC2 (stereo not shown) [f, reference compound]	446	0.6	6.0	96	–	–	–	–	–	4.1	–	–
CC(C)c1cc2ccccc2c2c1C=CC1(O2)C2CCCC1CCC2 (stereo not shown) [Compound 21]	449	0.5	2.0	97	–	–	–	–	–	1.0	–	–
CCC(C)(C)c1cc2ccccc2c2c1C=CC(c1ccc(OC)cc1)(c1ccco1)O2 (stereo not shown) [Compound 3]	488	1.1	2.0	95	–	–	–	–	–	3.1	–	–
CCC(C)c1cc2ccccc2c2c1C=CC1(O2)C2CCCC1CCC2 (stereo not shown) [Compound 23]	450	0.5	2.0	92	–	–	–	–	–	1.0	–	–
CC(C)c1cc2ccccc2c2c1C=CC(c1ccccc1)(c1ccccc1)O2 [Compound 12]	476	0.9	1.0	99	–	–	–	–	–	6.8	–	–

More lines, main results first:

Maximum absorption wavelength λmax [1, 3] [nm]	Color density ε(120)-ε(0) [1, 4]	Change in the coloring degree ΔYI [2, 5]	Light resistance (durability) [2, 6] [%]	λ max ([1]; Table 6) [nm]	Color density ε(120)-ε(0) [1, 7]	Initial color ε(0) ([1]; Table 6)	Change in the coloring degree ΔYI [2, 9]	Durability [2, 9] [%]	SMILES	Fading rate t1/2 [1, 3] [min]	Fading rate t1/2 [1, 8] [min]	Color-developing sensitivity ([1]; Table 6)
512	1.3	2.5	97	–	–	–	–	–	COc1ccc(C2(c3ccc(OC)cc3)C=Cc3c(C)cc4cc(-c5ccccc5)ccc4c3O2)cc1 [Compound 37]	7.2	–	–
484	1.3	2.4	96	–	–	–	–	–	Cc1cc2ccccc2c2c1C=CC(c1ccccc1)(c1ccccc1)O2 [c, reference compound]	20	–	–
510	1.1	2.3	98	–	–	–	–	–	COc1ccc(C2(c3ccc(OC)cc3)C=Cc3c(C)cc4ccc(C)cc4c3O2)cc1 [Compound 36]	6.0	–	–
452	0.7	0.7	98	–	–	–	–	–	CC(C)(C)c1cc2ccccc2c2c1C=CC(c1ccccc1)(c1ccc(OC(F)(F)F)cc1)O2 (stereo not shown) [Compound 17]	3.2	–	–
512	1.0	2.7	96	–	–	–	–	–	COc1ccc(C2(c3cccs3)C=Cc3c(C)cc4ccccc4c3O2)cc1 (stereo not shown) [Compound 32]	6.5	–	–
490	0.7	2.0	92	–	–	–	–	–	COc1ccc2c3c(c(C(C)Cc4ccccc4)cc2c1)C=CC(c1ccccc1)(c1cccn1C)O3 (stereo not shown) [Compound 8]	2.2	–	–
520	1.3	2.2	98	–	–	–	–	–	COc1ccc(C2(c3ccc(OC)cc3)C=Cc3c(C)cc4c(OC)cccc4c3O2)cc1 [Compound 33]	5.5	–	–
504	1.2	2.3	99	–	–	–	–	–	COc1ccc(C2(c3ccc(OC)cc3)C=Cc3c(C)cc4ccccc4c3O2)cc1 [Compound 26]	6.0	–	–
